IC50 data for 1 compound are collected here from ChEMBL document CHEMBL1153969, “N-Hydroxy-(4-oxime)-cinnamide: a versatile scaffold for the synthesis of novel histone deacetylase [correction of deacetilase] (HDAC) inhibitors” (Bioorg Med Chem Lett, 2009).

In one assay the target is Histone deacetylase 2 (Homo sapiens, UniProt Q92769). In words: Inhibition of human HDAC2.
The target in the next assay is Histone deacetylase 3 (Homo sapiens, UniProt O15379). In words: Inhibition of human HDAC3.
In the next assay the target is Histone deacetylase 5 (Homo sapiens, UniProt Q9UQL6). Put plainly: Inhibition of human HDAC5.
Chain of Histone deacetylase 5 (Q9UQL6 whole entry): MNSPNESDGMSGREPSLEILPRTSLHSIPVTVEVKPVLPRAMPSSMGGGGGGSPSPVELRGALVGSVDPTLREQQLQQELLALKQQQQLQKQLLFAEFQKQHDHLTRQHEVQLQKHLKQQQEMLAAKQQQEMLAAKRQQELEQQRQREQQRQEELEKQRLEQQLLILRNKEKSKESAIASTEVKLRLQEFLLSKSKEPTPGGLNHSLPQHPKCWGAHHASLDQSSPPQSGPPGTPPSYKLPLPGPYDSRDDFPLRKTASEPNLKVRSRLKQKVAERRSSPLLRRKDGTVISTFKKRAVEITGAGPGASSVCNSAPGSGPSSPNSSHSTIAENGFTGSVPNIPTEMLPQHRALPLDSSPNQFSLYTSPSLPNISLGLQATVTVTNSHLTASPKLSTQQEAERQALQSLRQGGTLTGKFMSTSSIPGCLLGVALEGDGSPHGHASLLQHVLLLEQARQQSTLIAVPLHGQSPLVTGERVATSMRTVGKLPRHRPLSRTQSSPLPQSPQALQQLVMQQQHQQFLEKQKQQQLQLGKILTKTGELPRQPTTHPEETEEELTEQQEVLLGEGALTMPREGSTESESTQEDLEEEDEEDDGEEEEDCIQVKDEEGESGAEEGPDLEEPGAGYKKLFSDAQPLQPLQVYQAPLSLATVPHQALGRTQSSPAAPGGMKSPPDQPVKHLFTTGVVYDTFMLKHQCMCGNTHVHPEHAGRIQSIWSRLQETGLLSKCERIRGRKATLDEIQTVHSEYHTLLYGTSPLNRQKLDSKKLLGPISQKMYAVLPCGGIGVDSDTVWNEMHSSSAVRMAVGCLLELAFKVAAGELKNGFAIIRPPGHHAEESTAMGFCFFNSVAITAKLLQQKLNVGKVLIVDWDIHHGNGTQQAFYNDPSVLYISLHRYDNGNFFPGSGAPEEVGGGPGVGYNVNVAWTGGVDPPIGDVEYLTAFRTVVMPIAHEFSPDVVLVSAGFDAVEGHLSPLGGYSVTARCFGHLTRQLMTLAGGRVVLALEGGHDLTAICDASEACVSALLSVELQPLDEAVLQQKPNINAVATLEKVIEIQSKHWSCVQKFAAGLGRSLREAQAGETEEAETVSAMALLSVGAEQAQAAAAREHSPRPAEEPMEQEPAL
Assay [1] addresses T1, Protein deacetylase HDAC6 (Homo sapiens, UniProt Q9UBN7).
T1 sequence (Q9UBN7 whole entry): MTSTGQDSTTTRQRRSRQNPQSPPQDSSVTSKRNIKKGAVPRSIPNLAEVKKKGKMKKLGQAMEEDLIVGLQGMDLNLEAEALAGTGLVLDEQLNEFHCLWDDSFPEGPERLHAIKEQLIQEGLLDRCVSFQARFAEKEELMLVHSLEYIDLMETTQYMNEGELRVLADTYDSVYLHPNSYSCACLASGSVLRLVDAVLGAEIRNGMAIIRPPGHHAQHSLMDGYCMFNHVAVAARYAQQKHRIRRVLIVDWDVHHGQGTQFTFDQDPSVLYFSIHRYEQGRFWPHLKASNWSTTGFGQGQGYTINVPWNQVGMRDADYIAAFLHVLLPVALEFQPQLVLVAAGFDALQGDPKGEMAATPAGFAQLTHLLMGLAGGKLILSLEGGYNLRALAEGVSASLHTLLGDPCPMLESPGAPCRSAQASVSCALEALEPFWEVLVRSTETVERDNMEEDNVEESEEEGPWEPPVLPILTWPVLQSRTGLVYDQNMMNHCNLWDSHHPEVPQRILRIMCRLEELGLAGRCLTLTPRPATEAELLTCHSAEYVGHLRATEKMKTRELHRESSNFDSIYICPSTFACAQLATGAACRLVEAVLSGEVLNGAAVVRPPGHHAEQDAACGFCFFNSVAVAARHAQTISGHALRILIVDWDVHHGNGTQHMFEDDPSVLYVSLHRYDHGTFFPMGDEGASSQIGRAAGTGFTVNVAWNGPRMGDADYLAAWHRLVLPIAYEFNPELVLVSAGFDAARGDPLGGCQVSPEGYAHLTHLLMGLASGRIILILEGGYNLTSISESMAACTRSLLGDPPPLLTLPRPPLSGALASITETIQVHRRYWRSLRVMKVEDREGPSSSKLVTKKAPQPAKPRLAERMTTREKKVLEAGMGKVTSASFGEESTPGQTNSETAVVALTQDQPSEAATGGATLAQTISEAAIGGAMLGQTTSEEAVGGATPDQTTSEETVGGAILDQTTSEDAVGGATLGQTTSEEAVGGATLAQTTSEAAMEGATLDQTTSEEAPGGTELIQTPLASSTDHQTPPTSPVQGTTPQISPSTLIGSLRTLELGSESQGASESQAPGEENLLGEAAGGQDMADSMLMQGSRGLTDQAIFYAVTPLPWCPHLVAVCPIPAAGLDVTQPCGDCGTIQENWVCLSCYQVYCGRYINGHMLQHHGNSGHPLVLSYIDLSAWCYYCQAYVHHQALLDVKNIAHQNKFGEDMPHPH
Put plainly: Inhibition of human HDAC6.

Assay [2] concerns the target T2, Polyamine deacetylase HDAC10 (Homo sapiens, UniProt Q969S8).
T2 sequence (Q969S8 whole entry): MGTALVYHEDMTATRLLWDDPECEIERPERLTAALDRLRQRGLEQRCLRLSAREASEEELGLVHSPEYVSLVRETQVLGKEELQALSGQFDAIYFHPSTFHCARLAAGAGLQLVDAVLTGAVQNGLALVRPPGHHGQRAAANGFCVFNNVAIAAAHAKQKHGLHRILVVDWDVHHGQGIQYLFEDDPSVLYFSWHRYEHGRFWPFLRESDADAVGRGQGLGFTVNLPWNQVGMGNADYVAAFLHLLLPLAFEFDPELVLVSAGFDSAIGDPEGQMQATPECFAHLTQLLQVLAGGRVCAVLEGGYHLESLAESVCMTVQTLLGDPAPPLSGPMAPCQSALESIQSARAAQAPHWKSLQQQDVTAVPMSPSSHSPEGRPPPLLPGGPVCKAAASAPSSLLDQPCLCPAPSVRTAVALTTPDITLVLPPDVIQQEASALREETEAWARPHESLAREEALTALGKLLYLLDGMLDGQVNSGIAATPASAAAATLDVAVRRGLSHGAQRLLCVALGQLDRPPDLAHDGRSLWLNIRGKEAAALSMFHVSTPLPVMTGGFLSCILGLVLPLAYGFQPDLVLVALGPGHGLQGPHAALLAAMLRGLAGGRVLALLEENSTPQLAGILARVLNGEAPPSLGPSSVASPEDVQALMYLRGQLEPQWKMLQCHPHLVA
In words: Inhibition of human HDAC10.

One may read the IC50 as the concentration that inhibits the measured activity by half. Low readings indicate greater potency in that assay, high ones weaker potency in that assay.

Chain of Histone deacetylase 3 (O15379 whole entry): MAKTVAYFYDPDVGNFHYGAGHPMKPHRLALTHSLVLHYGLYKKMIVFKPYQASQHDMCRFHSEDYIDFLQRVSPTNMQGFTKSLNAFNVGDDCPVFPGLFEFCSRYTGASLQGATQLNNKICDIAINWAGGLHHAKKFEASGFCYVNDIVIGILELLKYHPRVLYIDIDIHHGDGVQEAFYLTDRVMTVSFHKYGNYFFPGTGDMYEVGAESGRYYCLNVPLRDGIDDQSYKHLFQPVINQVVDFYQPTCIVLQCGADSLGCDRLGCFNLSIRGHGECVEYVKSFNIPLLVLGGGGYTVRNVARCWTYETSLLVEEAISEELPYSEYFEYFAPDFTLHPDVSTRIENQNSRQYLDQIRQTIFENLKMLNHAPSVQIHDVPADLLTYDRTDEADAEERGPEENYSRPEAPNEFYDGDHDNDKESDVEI
Chain of Histone deacetylase 2 (Q92769 whole entry): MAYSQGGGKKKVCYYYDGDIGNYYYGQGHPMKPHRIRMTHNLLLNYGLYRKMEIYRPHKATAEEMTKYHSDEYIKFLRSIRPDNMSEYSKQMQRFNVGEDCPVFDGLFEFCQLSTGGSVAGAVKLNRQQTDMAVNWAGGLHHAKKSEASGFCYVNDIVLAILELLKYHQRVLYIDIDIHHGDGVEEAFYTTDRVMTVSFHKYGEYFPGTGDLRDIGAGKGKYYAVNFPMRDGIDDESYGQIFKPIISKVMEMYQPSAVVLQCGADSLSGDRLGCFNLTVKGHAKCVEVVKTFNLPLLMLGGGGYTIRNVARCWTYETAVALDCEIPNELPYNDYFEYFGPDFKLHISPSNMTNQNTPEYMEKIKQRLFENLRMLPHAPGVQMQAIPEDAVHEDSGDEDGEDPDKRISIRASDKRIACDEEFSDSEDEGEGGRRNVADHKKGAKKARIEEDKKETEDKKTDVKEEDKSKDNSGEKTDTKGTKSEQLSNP

In the case of `O=C(/C=C/c1ccc(/C=N/OCc2ccc([N+](=O)[O-])cc2)cc1)NO`, the IC50 against Histone deacetylase 2 was determined as 2670 nM; against Histone deacetylase 3 it was 160 nM; against Histone deacetylase 5 it was 1160 nM; in assay [1], 124 nM; in assay [2] it was 1580 nM.
